In patent US8754217B2, “Nalmefene hydrochloride dihydrate” (H. Lundbeck A/S, priority 2008, dated 2014):
Structures can show the parent of a compound that is named as a salt.

Key:
[1] = DVS (Dynamic Vapour Sorption) experiments, hygroscopicity; type: physicochemical
Description: As shown in Example 1 of the present invention, DVS (Dynamic Vapour Sorption) experiments were performed at 25° C. and at 40° C. […] In contrast hereto, as shown in Example 2, Nalmefene hydrochloride as monohydrate absorbed about 2.5% water when exposed to 95% RH and 40° C.
DVS experiments were performed at 25° C. and at 40° C. The dihydrate is retained at relative humidity of 10-95%. Adsorption to the surface at high relative humidity is less than 0.2%. Desorption of the crystal water occurs slowly under 10% RH.
DVS experiments were performed at 25° C. and at 40° C. The shape of the curves was the same, only the curve at 40° C. is shown (FIG. 5).
Most of the water of hydration (4%) was absorbed at 10% RH. […] The amounts here are given as % weigh increase relative to dry, thus the weight gain corresponding to monohydrate was 4.8% and a 1.5 hydrate corresponds to a gain of 7.2%.

[2] = Brittain, Analytical Profiles of Drug Substances and Excipients (1996); cited from earlier work
[3] = Solubility in aqueous solutions; type: physicochemical
Description: To recover any unused Nalmefene hydrochloride from the methods I or II, outlined above, a method for the recovery has been developed that comprises • (i) optionally, distillation of mother liquors obtained from method (I) or (II) • (ii) basification of the mother liquors obtained in step (i), or from the methods (I) or (II), • (iii) extracting the mixture with a suitable organic solvent, • (iv) adding hydrogen chloride, and • (v) isolating the formed solid

[4] = Particle size by Laser Diffraction (Malvern Mastersizer S); type: physicochemical; settings: Example 3 batch, mineral oil as dispergent
Description: In the present context, particle sizes are determined by Laser Diffraction using a Malvern Mastersizer S instrument as disclosed in details in the introductory part of the experimental section.
In the present context, particle sizes are determined by Laser Diffraction using a Malvern Mastersizer S instrument made up of a laser transmitter (LASER HELIUM-NEON-wavelength 632 nm), an optical system (300 F lens, range 0.5-900 μm), a measurement cell for suspension (beam length 2.4 mm) and a photodiode detector. The sample is analysed using mineral oil (CAS 8042-47) as dispergent.
The particle size of the so obtained Nalmefene hydrochloride dihydrate was determined by Laser Diffraction using a Malvern Mastersizer S instrument.

C=C1CC[C@@]2(O)[C@H]3Cc4ccc(O)c5c4[C@@]2(CCN3CC2CC2)[C@H]1O5 [Nalmefene hydrochloride monohydrate]
water absorbed when exposed to 95% RH and 40° C. ([1]; 95% RH, 40° C.): about 2.5% | weight increase relative to dry at 10% RH ([1]; DVS, 10% RH): 4% | weight increase relative to dry at 50% RH ([1]; DVS, 50% RH): 4.3% | weight increase relative to dry at 60% RH ([1]; DVS, 60% RH): 6.9% | weight increase relative to dry at 95% RH ([1]; DVS, 95% RH): 7.3% | RH above which the form changed into a new structure with higher water content ([1]; DVS, Example 2): above 50% | hygroscopicity (in words) ([1]; listed as Nalmefene hydrochloride as a monohydrate, hydrochloride monohydrate): hygroscopic | adventitious moisture sorbed [2]: up to 1%

C=C1CC[C@@]2(O)[C@H]3Cc4ccc(O)c5c4[C@@]2(CCN3CC2CC2)[C@H]1O5 [Nalmefene hydrochloride, 17-(cyclopropylmethyl)-4,5-α-epoxy-6-methylenemorphinan-3,14-diol hydrochloride]
solubility in aqueous solutions such as water [3]: highly soluble

C=C1CC[C@@]2(O)[C@H]3Cc4ccc(O)c5c4[C@@]2(CCN3CC2CC2)[C@H]1O5 [Nalmefene hydrochloride dihydrate]
relative humidity at which the hydrate is retained ([1]; DVS at 25° C. and 40° C.): 10-95% | relative humidity under which desorption of the crystal water occurs slowly ([1]; DVS at 25° C. and 40° C.): under 10 % RH | adsorption to the surface at high relative humidity ([1]; DVS at 25° C. and 40° C., high relative humidity): less than 0.2% | water absorbed at 95% RH ([1]; DVS at 25° C. and at 40° C., 95% RH): no water was absorbed | rehydration after drying at 0% RH ([1]; DVS-curve, crystal lattice retained): complete rehydration | hygroscopicity (in words) ([1]; hydrochloride dihydrate): non-hygroscopic | particle size D10 [4]: 14 μm | particle size D50 [4]: 122 μm | particle size D90 [4]: 287 μm
